Test results reported in patent US20190328833A1, “POLYMYXIN-ALGINATE OLIGOMER CONJUGATES” (AlgiPharma AS, priority 2016, published 2019).

How the values were obtained:
[1] = test system: human kidney (HK-2) cell line; test: In vitro cytotoxicity: MTT assay; assay type: cell-based; settings: HK-2, 72 h, concentration of the antibiotic or the antibiotic within the conjugate, mean (n=18)
Method: An MTT assay was used to assess cell viability in a human kidney (HK-2) cell line (72 h incubation). HK-2 cells were seeded into sterile 96-well microtitre plates (1×10^5 cells/mL) in 0.1 mL/well of media (K-SFM) containing L-glutamine, EGF and BPE. They were allowed to adhere for 24 h. The medium was then removed and a range of concentrations of test compounds (0.2 μm filter-sterilized) dissolved in fresh culture media were added to the cells. After a further 67 h incubation, MTT, 3-(4,5-dimethylthiazol-2-yl)-2,5-diphenyltetrazolium bromide, (20 μL of a 5 mg/mL solution in PBS) was added to each well and the cells were incubated for a further 5 h. The medium was then removed and the precipitated formazan crystals solubilized by addition of optical grade DMSO (100 μL) over 30 min. Absorbance was measured at 540 nm using a microtitre plate reader. Cell viability was expressed as a percentage of the viability of untreated control cells. The IC50 values were expressed as mean (n=18).
The IC50 values summarised below represent the concentration of the antibiotic (polymyxin B, colistin sulphate or colistin methanesulphonate (CMS)) or the antibiotic within the conjugate required to inhibit HK2 cells growth by half. OligoG is included as a control.

V11 Escherichia coli = test: MIC, broth microdilution, V11; assay type: cell-based; settings: Batch 6; n=3, median
Method: (§1) The strains used for susceptibility testing include both culture collection strains and clinical isolates (Table 1). To the extent indicated below, their known relevant genotypes and origin have been described by Khan et al. supra.
(§2) The MICs were determined using the broth microdilution method in accordance with standard guidelines (CLSI 2012). Test organisms were suspended in Mueller Hinton cation adjusted (MH) broth (100 μL, 1-5×10^4 CFU/mL) and incubated in 96-well microtitre plates in serial two-fold dilutions of the test compounds. The MIC was defined as the lowest concentration of test compound that produced no visible growth after 16-20 hours.

V5 Escherichia coli = test: MIC, broth microdilution, V5; assay type: cell-based; settings: n=3, median
Method: as §1, §2

[2] = test system: V19 Acinetobacter baumannii; test: MIC, broth microdilution, V19; assay type: cell-based; settings: for MIC V19: n=3, median
Method: as §1, §2

[3] = test system: TNFα release from HK2 cells; test: TNFα release from HK2 cells (ELISA); assay type: cell-based, human; settings: 72 h incubation, FIG. 8
Method: As a model inflammatory cytokine involved in polymyxin cyto toxicity, TNFα release from HK2 cells in response to polymyxins and OligoG-polymyxin conjugates was measured by ELISA. HK-2 cells were seeded into sterile 96-well microtitre plates (1×10^5 cells/mL) in 0.1 mL/well of media (K-SFM) containing L-glutamine, EGF and BPE. They were allowed to adhere for 24 h. The medium was then removed and a range of concentrations of test compounds (0.2 μm filter-sterilized) dissolved in fresh culture media were added to the cells. After 72 h incubation, microtiter plates were centrifuged (1500 rpm, 3 min) and the supernatant was transferred into a new 96-well microtitre plate.
TNFα ELISA Assay was carried out according the manufacturer's instructions (Thermo Scientific, ESS0001). Briefly, 100 μL of coating antibody (1:100 dilution in PBS) was added to each well of 96-well microtitre plate. […] Absorbance was measured at 450 nm minus 550 nm.
Standard curves were generated by plotting the average absorbance obtained for each standard concentration on the vertical (Y) axis versus the corresponding human TNFα concentration (pg/mL) on the horizontal (X) axis. Human TNFα amount in each sample was determined by interpolating from the absorbance value (Y-axis) to human TNFα concentration (X-axis) using the standard curve. […]

[4] = test system: V2 Pseudomonas aeruginosa (301); test: MIC, broth microdilution, V2; assay type: cell-based; settings: for MIC V2: n=3, median
Method: as §1, §2

[5] = test system: V6 Klebsiella pneumoniae IR25; test: MIC, broth microdilution, V6; assay type: cell-based; settings: n=3, median
Method: as §1, §2

[6] = test system: V2 Pseudomonas aeruginosa, V3 Klebsiella pneumoniae, V19 Acinetobacter baumannii, V7 Escherichia coli; test: Bacterial growth curves (absorbance at 600 nm, 48 h); assay type: cell-based
Method: Finally, bacterial growth curves, using the mean of the previously determined MIC values for OligoG-colistin conjugates (amide and ester linked) and colistin sulfate, were used to compare their pharmacokinetic profiles in vitro. For comparison, bacterial growth in the presence of i) OligoG, ii) PRONOVA (high molecular weight alginate) and iii) OligoG plus colistin, both at concentrations corresponding to the amounts present in the corresponding conjugates, was measured. Sterile 96-well microtitre plates were set up for MIC assay as previously described (range: MIC×16 to MIC/16, 0). Plates were then wrapped in parafilm and placed in a microtitre plate reader at 37° C., 5% CO2 and absorbance at 600 nm was measured hourly for 48 h. Experiments were conducted in triplicate and results were presented as mean values (n=3).

[7] = test system: V1 Pseudomonas aeruginosa R22; test: MIC, broth microdilution, V1; assay type: cell-based; settings: n=3, median
Method: as §1, §2

[8] = test system: Pseudomonas aeruginosa biofilms; test: Disruption of biofilm development (CLSM, live/dead stain); assay type: cell-based; settings: 2×MIC-MIC/8; 24 h
Method: (§3) These experiments investigated whether OligoG-colistin conjugates could inhibit biofilm development more effectively than unconjugated forms of colistin. First, stock solutions of the test compounds were prepared at 1 mg/mL in MH broth and used to prepare a range of antibiotic concentrations (2×MIC-MIC/8) using double dilutions in MH broth across wells of a Greiner glass-bottomed optical 96-well plate (90 μL per well). Sterility (100 μL of MH broth) and growth (90 μL of MH broth plus 10 μL of tested bacterial pathogen) controls were also prepared. Overnight bacterial cultures were grown in TS broth (TSB) and diluted in MH broth to achieve an OD625 of 0.5, then 10 μL was added to the wells. Plates were wrapped in parafilm and incubated for 24 h on a rocker (20 rpm) at 37° C. After a 24 h incubation, the supernatant was carefully removed from all wells and 3 μL of live/dead stain (Live/dead Baclight Bacterial Viability kit; prepared by mixing 1 μL of component A and B in 1 mL of PBS) was added. The plate was wrapped in foil and kept in the dark for 15 min. Lastly, 47 μL of PBS was added to all tested wells. The plate was wrapped in parafilm and kept in the dark until it was analysed by confocal laser scanning microscopy (CLSM), n=2.

Pseudomonas aeruginosa = test: MIC quoted for the biofilm study; assay type: cell-based; settings: FIG. 9 legend and Example 7; strain not stated
Method: as §2
as §3, with “After a 24 h incubation, the supernatant was carefully removed from all wells and 3 μL of live/dead stain (Live/dead Baclight Bacterial Viability kit; prepared by mixing 1 μL of component A and B in 1 mL of PBS) was added. The plate was wrapped in foil and kept in the dark for 15 min. Lastly, 47 μL of PBS was added to all tested wells.” left out

[9] = test system: V4 Acinetobacter baumanii MDR ACB; test: MIC, broth microdilution, V4; assay type: cell-based; settings: n=3, median
Method: as §1, §2

V7 Escherichia coli = test: MIC, broth microdilution, V7; assay type: cell-based; settings: for MIC V7: n=3, median
Method: as §1, §2

[10] = test system: Acinetobacter baumanii (V19); test: Two-compartment static dialysis bag PK/PD model, colony counts; assay type: cell-based; settings: at MIC (0.25 μg/ml); after 4 h; Batch 6
Description: Studies were undertaken to investigate the PK/PD profiles of the OligoG-colistin conjugates (Batch 6) as compared to non-conjugated colistin in vitro. This is particularly important in nanoscale drug delivery systems where the incorporation of conventional small molecule drugs into nano-sized structures is associated with PK/PD properties that are substantially altered from the original drug. The model system previously described in Azzopardi (supra) was employed.
The unmasking of OligoG-colistin conjugates was simulated using the Azzopardi two-compartment static dialysis bag model under infinite sink conditions (total volume, 20 ml; inner-compartment volume, 5 ml). Dialysis membrane (10,000 g/mol molecular weight cutoff [MWCO]) was pre-soaked for 15 to 30 min in distilled water (dH2O), secured with dialysis clips, and suspended from an injection port to separate the inner compartment (IC) from the outer compartment (OC) in a sterilized 25-ml beaker sealed with a sterile medical-grade polyurethane membrane (Tegaderm).
The model system was prepared under aseptic conditions in a class 2 laminar airflow cabinet and transferred to a shaking incubator set at 37° C. in ambient air and constant orbital agitation at 70 rpm for 48 h. […] Samples were collected from the OC at various time points and characterised by bacterial colony counts (CFU/ml) using Miles and Misra Method.

[11] = test system: NH57388A Pseudomonas aeruginosa; test: MIC, broth microdilution, NH57388A; assay type: cell-based; settings: Batch 6; n=3, median
Method: as §1, §2

V3 Klebsiella pneumoniae = test: MIC, broth microdilution, V3; assay type: cell-based; settings: for MIC V3: n=3, median
Method: as §1, §2

Substance colistin methanesulphonate [CMS] has an IC50 ([1]; Batch 5) of 13970 ng/mL.
For colistin sulfate, the “MIC V11” value (V11 Escherichia coli) was 31 ng/mL, the IC50 ([1]; Batch 4) was 25000 ng/mL and the IC50 ([1]; Batch 5) was 10980 ng/mL. For the same substance, the “MIC V5” value (V5 Escherichia coli; Batch 2) was 0.02 ng/mL, the “MIC V5” value (V5 Escherichia coli; Batch 4) was <16 ng/mL and the “MIC V5” value (V5 Escherichia coli; Batch 6) was <8 ng/mL. For the same substance, the “MIC V19” value ([2]; Batch 2) was <62.5 ng/mL, the “MIC V19” value ([2]; Batch 4) was <16 ng/mL and the “MIC V19” value ([2]; Batch 6) was 250 ng/mL. The “median MIC” value ([2]; FIG. 3 legend, V19, MIC used for growth curves) was 2 ng/mL, the “TNFα release, adjusted for cell viability” value [3] was “greater TNFα release” and the “MIC V2” value ([4]; Batch 2) was 250 ng/mL. The “MIC V2” value ([4]; Batch 4) was 250 ng/mL, the “MIC V2” value ([4]; Batch 6) was 500 ng/mL and the “median MIC” value ([4]; FIG. 1 legend, V2, MIC used for growth curves) was 63 ng/mL. For the same substance, the “MIC V6” value ([5]; Batch 4) was 62.5 ng/mL, the “MIC V6” value ([5]; Batch 6) was 63 ng/mL and the “bacterial growth / regrowth in growth curves” value ([6]; FIGS. 1-5, 48 h) was “more rapid bacterial regrowth”. The “inhibition of bacterial re-growth” value ([6]; at the median of previously determined MIC values across all batches) was “shortest inhibition of bacterial re-growth”, the “concentration inhibiting bacterial re-growth for up to 48 h” value ([6]; up to 48 h) was > 8 ×MIC and the “MIC V1” value ([7]; Batch 4) was 250 ng/mL. For the same substance, the “MIC V1” value ([7]; Batch 6) was 500 ng/mL, the effect on biofilms [8] was “only a small effect on P. aeruginosa biofilms” and the “median MIC” value (Pseudomonas aeruginosa) was 63 ng/mL. The “MIC V4” value ([9]; Batch 4) was 500 ng/mL, the “MIC V4” value ([9]; Batch 6) was 500 ng/mL and the “MIC V7” value (V7 Escherichia coli; Batch 4) was 125 ng/mL. For the same substance, the “MIC V7” value (V7 Escherichia coli; Batch 6) was 250 ng/mL, the “median MIC” value (V7 Escherichia coli; FIG. 4 legend, V7, MIC used for growth curves) was 63 ng/mL and the “reduction of viable bacterial counts” value [10] was ~2 fold. The “MIC NH57-388A” value [11] was 250 ng/mL, the “MIC V3” value (V3 Klebsiella pneumoniae; Batch 2) was <125 ng/mL and the “MIC V3” value (V3 Klebsiella pneumoniae; Batch 4) was <63 ng/mL. For the same substance, the “MIC V3” value (V3 Klebsiella pneumoniae; Batch 6) was 125 ng/mL and the “median MIC” value (V3 Klebsiella pneumoniae; FIG. 2 legend, V3, MIC used for growth curves) was 8 ng/mL.
In the case of polymyxin B, the “MIC V11” value (V11 Escherichia coli) is reported as 63 ng/mL, the IC50 ([1]; Batch 4) is reported as 12000 ng/mL and the IC50 ([1]; Batch 5) is reported as 12630 ng/mL. The “MIC V5” value (V5 Escherichia coli; Batch 2) was <0.008 ng/mL, the “MIC V5” value (V5 Escherichia coli; Batch 4) was <16 ng/mL and the “MIC V5” value (V5 Escherichia coli; Batch 6) was <4 ng/mL. For the same substance, the “MIC V19” value ([2]; Batch 2) was <62.5 ng/mL, the “MIC V19” value ([2]; Batch 4) was 31 ng/mL and the “MIC V19” value ([2]; Batch 6) was 125 ng/mL. For the same substance, the “TNFα release, adjusted for cell viability” value [3] was “greater TNFα release”, the “MIC V2” value ([4]; Batch 2) was 250 ng/mL and the “MIC V2” value ([4]; Batch 4) was 500 ng/mL. The “MIC V2” value ([4]; Batch 6) was 500 ng/mL, the “MIC V6” value ([5]; Batch 4) was 125 ng/mL and the “MIC V6” value ([5]; Batch 6) was 125 ng/mL. For the same substance, the “MIC V1” value ([7]; Batch 4) was 250 ng/mL, the “MIC V1” value ([7]; Batch 6) was 250 ng/mL and the “MIC V4” value ([9]; Batch 4) was 125 ng/mL. The “MIC V4” value ([9]; Batch 6) was 125 ng/mL, the “MIC V7” value (V7 Escherichia coli; Batch 4) was 63 ng/mL and the “MIC V7” value (V7 Escherichia coli; Batch 6) was 500 ng/mL. The “MIC NH57-388A” value [11] was 250 ng/mL, the “MIC V3” value (V3 Klebsiella pneumoniae; Batch 2) was <125 ng/mL and the “MIC V3” value (V3 Klebsiella pneumoniae; Batch 4) was 125 ng/mL. For the same substance, the “MIC V3” value (V3 Klebsiella pneumoniae; Batch 6) was 125 ng/mL.
